Active and inactive are the calls of the source. The rule behind the calls is not given here.
Key:
A549 [1] = experiment: Cell cycle arrest in human A549 cells assessed as G2/M phase accumulation at 1 uM after 48 hrs by propidium iodide staining based FACS analysis (reference value: 16.81%); format: functional
A549 [2] = experiment: Induction of apoptosis in human A549 cells assessed as live cells at 2 uM after 48 hrs by Annexin V-FITC/propidium iodide staining based flow cytometry (reference value: 91.22%); format: functional
A549 [3] = experiment: Induction of apoptosis in human A549 cells assessed as late apoptotic cells at 1 uM after 48 hrs by Annexin V-FITC/propidium iodide staining based flow cytometry (reference value: 5.19%); format: functional
A549 [4] = experiment: Cell cycle arrest in human A549 cells assessed as G0/G1 phase accumulation at 1 uM after 48 hrs by propidium iodide staining based FACS analysis (reference value: 77.91%); format: functional
A549 [5] = experiment: Induction of apoptosis in human A549 cells assessed as cell population with mitochondrial membrane potential loss at 1 uM measured after 48 hrs by JC-1 staining based flow cytometry (reference value: 27.4%); format: functional
A549 [6] = experiment: Cell cycle arrest in human A549 cells assessed as S phase accumulation at 1 uM after 48 hrs by propidium iodide staining based FACS analysis (reference value: 2.45%); format: functional
A549 [7] = experiment: Cell cycle arrest in human A549 cells assessed as sub G1 phase accumulation at 2 uM after 48 hrs by propidium iodide staining based FACS analysis (reference value: 0.96%); format: functional
A549 [8] = experiment: Induction of apoptosis in human A549 cells assessed as necrotic cells at 1 uM after 48 hrs by Annexin V-FITC/propidium iodide staining based flow cytometry (reference value: 0.35%); format: functional
A549 [9] = experiment: Induction of apoptosis in human A549 cells assessed as cell population with intact mitochondrial membrane potential at 2 uM measured after 48 hrs by JC-1 staining based flow cytometry (reference value: 37.5%); format: functional
A549 [10] = experiment: Induction of apoptosis in human A549 cells assessed as live cells at 1 uM after 48 hrs by Annexin V-FITC/propidium iodide staining based flow cytometry (reference value: 91.22%); format: functional
A549 [11] = experiment: Cell cycle arrest in human A549 cells assessed as S phase accumulation at 2 uM after 48 hrs by propidium iodide staining based FACS analysis (reference value: 2.45%); format: functional
A549 [12] = experiment: Cell cycle arrest in human A549 cells assessed as G2/M phase accumulation at 2 uM after 48 hrs by propidium iodide staining based FACS analysis (reference value: 16.81%); format: functional
Spodoptera litura [13] = experiment: Antifeedant activity in Spodoptera litura third-instar larvae assessed as larval duration time after 24 hrs by leaf disk method (reference value: 10.1 +/- 0.1 day); format: functional
HeLa = experiment: Cytotoxicity against human HeLa cells assessed as reduction in cell viability after 48 hrs by MTT assay; format: functional, cell-based
Spodoptera litura [14] = experiment: Antifeedant activity in Spodoptera litura assessed as pupal weight after 24 hrs by leaf disk method (reference value: 0.245 +/- 0.02 g); format: functional
A549 [15] = experiment: Induction of apoptosis in human A549 cells after 48 hrs by Annexin V-FITC/propidium iodide staining based flow cytometry; format: functional, cell-based
A549 [16] = experiment: Induction of apoptosis in human A549 cells assessed as early apoptotic cells at 2 uM after 48 hrs by Annexin V-FITC/propidium iodide staining based flow cytometry (reference value: 3.24%); format: functional
Spodoptera litura [17] = experiment: Antifeedant activity in Spodoptera litura third-instar larvae assessed as increase in feeding deterrence by measuring antifeedant index at 5 ug/cm2 after 24 hrs by leaf disk method; format: functional
A549 [18] = experiment: Cell cycle arrest in human A549 cells assessed as G0/G1 phase accumulation at 2 uM after 48 hrs by propidium iodide staining based FACS analysis (reference value: 77.91%); format: functional
A549 [19] = experiment: Induction of apoptosis in human A549 cells assessed as cell population with intact mitochondrial membrane potential at 1 uM measured after 48 hrs by JC-1 staining based flow cytometry (reference value: 37.5%); format: functional
A549 [20] = experiment: Induction of apoptosis in human A549 cells assessed as cell population with mitochondrial membrane potential loss at 2 uM measured after 48 hrs by JC-1 staining based flow cytometry (reference value: 27.4%); format: functional
A549 [21] = experiment: Induction of apoptosis in human A549 cells assessed as late apoptotic cells at 2 uM after 48 hrs by Annexin V-FITC/propidium iodide staining based flow cytometry (reference value: 5.19%); format: functional
A549 [22] = experiment: Induction of apoptosis in human A549 cells assessed as early apoptotic cells at 1 uM after 48 hrs by Annexin V-FITC/propidium iodide staining based flow cytometry (reference value: 3.24%); format: functional
A549 [23] = experiment: Cell cycle arrest in human A549 cells assessed as G0/G1 phase accumulation after 48 hrs by propidium iodide staining based FACS analysis; format: functional
A549 [24] = experiment: Cytotoxicity against human A549 cells assessed as reduction in cell viability after 48 hrs by MTT assay; format: functional, cell-based; conditions: A549, 48 h
Spodoptera litura [25] = experiment: Antifeedant activity in Spodoptera litura assessed as pupal mortality after 24 hrs by leaf disk method (reference value: 0%); format: functional
A549 [26] = experiment: Induction of apoptosis in human A549 cells assessed as morphological change at 1 uM after 48 hrs by Hoechst 33258 staining based fluorescence microscopic analysis; format: functional, cell-based
Spodoptera litura [27] = experiment: Insecticidal activity in Spodoptera litura third-instar larvae assessed as larval mortality at 5 ug/cm2 after 24 hrs by leaf disk method relative to control; format: functional; conditions: foliar
Spodoptera litura [28] = experiment: Antifeedant activity in Spodoptera litura third-instar larvae assessed as increase in feeding deterrence after 24 hrs by leaf disk method; format: functional
DU-145 = experiment: Cytotoxicity against human DU145 cells assessed as reduction in cell viability after 48 hrs by MTT assay; format: functional, cell-based; conditions: DU-145, 48 h
MCF7 = experiment: Cytotoxicity against human MCF7 cells assessed as reduction in cell viability after 48 hrs by MTT assay; format: functional, cell-based; conditions: MCF7, 48 h
A549 [29] = experiment: Cell cycle arrest in human A549 cells assessed as sub G1 phase accumulation at 1 uM after 48 hrs by propidium iodide staining based FACS analysis (reference value: 0.96%); format: functional
A549 [30] = experiment: Induction of apoptosis in human A549 cells assessed as necrotic cells at 2 uM after 48 hrs by Annexin V-FITC/propidium iodide staining based flow cytometry (reference value: 0.35%); format: functional
HEK293 = experiment: Cytotoxicity against human HEK293 cells assessed as reduction in cell viability after 48 hrs by MTT assay; format: cell-based; conditions: HEK293, 48 h

`CC(C)(O)[C@@H]1CC[C@](C)([C@H]2[C@@H](O)C[C@@]3(C)[C@@H]4C[C@H](O)[C@H]5C(C)(C)[C@@H](O)CC[C@@]56C[C@@]46CC[C@]23C)O1` showed an Activity (A549 [1]) of 14.45%, an Activity (A549 [2]) of 71.07% and an Activity (A549 [3]) of 11.31%. For the same molecule, the Activity (A549 [4]) was 82.05%, the Activity (A549 [5]) was 29% and the Activity (A549 [6]) was 2.41%. For the same molecule, the Activity (A549 [7]) was 0.84%, the Activity (A549 [8]) was 0.96% and the Activity (A549 [9]) was 38.6%. For the same molecule, the Activity (A549 [10]) was 83.55%, the Activity (A549 [11]) was 0.87% and the Activity (A549 [12]) was 7.29%. It also gave a Time (Spodoptera litura [13]) of 14.2 days, an IC50 (HeLa) of 2200 nM and an Activity (Spodoptera litura [14]) of 0.199 g. The Activity (A549 [15]) was “Dose-dependent effect”, the Activity (A549 [16]) was 3.94% and the Activity_index (Spodoptera litura [17]) was 59.9. For the same molecule, the Activity (A549 [18]) was 90.47%, the Activity (A549 [19]) was 39.6% and the Activity (A549 [20]) was 31.1%. The Activity (A549 [21]) was 23.83%, the Activity (A549 [22]) was 4.17% and the Activity (A549 [23]) was “Dose-dependent effect”. For the same molecule, the IC50 (A549 [24]) was 1540 nM, the mortality (Spodoptera litura [25]) was 89.6% and the Activity (A549 [26]) was “Active”. For the same molecule, the mortality at 5 µg/cm2 (Spodoptera litura [27]) was 11.8%, the ED50 (Spodoptera litura [28]) was 11.96 microg/cm2 and the IC50 (DU-145) was 7260 nM. For the same molecule, the IC50 (MCF7) was 1780 nM, the Activity (A549 [29]) was 0.4% and the Activity (A549 [30]) was 1.16%. The IC50 (HEK293) was 128000 nM.

— ChEMBL document CHEMBL4138079, “New cycloartane type-triterpenoids from the areal parts of Caragana sukiensis and their biological activities” (Eur J Med Chem, 2017)
